# Data reported in PMC11357102, “Thiazole Functionalization of Thiosemicarbazone for Cu(II) Complexation: Moving toward Highly Efficient Anticancer Drugs with Promising Oral Bioavailability” (Molecules, 2024).
# Assays:
# [1] = clinical trials; cited from earlier work
# [2] = tested on: PLC/PRF/5 cells; assay: CCK-8 cytotoxicity assay, PLC/PRF/5; assay type: cell-based; settings: Homo sapiens; PLC/PRF/5, CCK-8, 72 h incubation, n = 3
# Method: (§1) The cytotoxicity of HL, 1, and 2 against three hepatocellular carcinoma cell lines Hep-G2, PLC/PRF/5, and HuH-7 were evaluated by the cell counting kit-8 (CCK-8; APExBIO Technology, Houston, TX, USA) assay.
# (§2) The HuH-7 cell line was cultured in DMEM + 10% FBS + 1% P/S and DMEM + 1% P/S. Cells grew as a monolayer and were detached upon confluence using trypsin (0.5% w/v in PBS). The cells were harvested from the cell culture medium by incubation in trypsin solution for 3 min, and they were then centrifuged with the supernatant and subsequently discarded. A 3 mL portion of serum-supplemented cell culture medium was added to neutralize any residual trypsin. The cells were re-suspended in serum-supplemented DMEM at a concentration of 5 × 10^4 cells/mL. […] After incubation, 100 μL of culture medium (DMEM + 10% FBS + 1% P/S) and 10 μL of CCK-8 was introduced and cultured for an additional 2 h before spectrophotometric measurement at 450 nm on a microplate reader. The relative cell viability (%) related to control cells was calculated using the equation: V%=[A]experimental−[A]blank/[A]control−[A]blank×100% where V% is the percentage of cell viability, [A]experimental is the absorbance of the wells culturing the treated cells, [A]blank is the absorbance of the blank, and [A]control is the absorbance of the wells culturing untreated cells. […]
# [3] = tested on: Hep-G2 cells; assay: CCK-8 cytotoxicity assay, Hep-G2; assay type: cell-based; settings: Homo sapiens, HepG2; Hep-G2, CCK-8, 72 h incubation, n = 3
# Method: as §1, §2
# [4] = tested on: HuH-7 cells; assay: Intracellular ROS generation, DCFH-DA probe; assay type: cell-based; settings: HuH-7, equivalent HL concentration 2 μg/mL, 2 h
# Source text: Given the efficient •OH production in water induced by 1 and 2, we next investigated in vitro ROS generation by 1 and 2 in the representative HuH-7 cell line using 2′,7′-dichlorodihydrofluorescein diacetate (DCFH-DA) as a fluorescence probe and compared it with that of HL [34, 35]. The non-emissive DCFH-DA can be readily uptaken by the cell, where it is hydrolyzed into 2,7-dichlorodihydrofluorescein (DCFH) by cellular enzymes. Upon oxidation by ROS, DCFH can convert to 2,7-dichlorofluorescein (DCF), which gives bright green fluorescence.
# HuH-7 cells were introduced into a 12-well plate (4 × 10^5 per well) in 1 mL of growing media (DMEM + 10% FBS + 1% P/S), and the cells were incubated at 37 °C under 5% CO2 for 24 h for attachment. The growing media were removed, and the wells were replenished with HL, 1, and 2 in 1 mL of growing media (with 2 ppm of DMSO) with equivalent HL concentrations of 2 μg/mL. The cells were incubated for an additional 2 h, and then the culturing media was replaced with […] DCFH-DA in DMEM + 1% P/S (1 mL), prepared by diluting (1:1000) a concentrated DCFH-DA following the supplied protocols. The cells were incubated for a further 20 min, and then the culturing media was removed. […]
# [5] = tested on: CD®(SD) IGS rats; assay: Toxicological study of HL, daily PO administration; assay type: in vivo
# Method: Their weight and status were monitored and compared with the control group (groups 1 and 2) that was fed sterilizing solutions. […] This highlights that a 5 mg kg^−1 drug dosage of HL by PO administration is safe for in vivo studies.
# The weight of the rats was continuously monitored over 27 days, and they were fed on day 1, 4, 8, 13, 16, 19, and 23.
# [6] = In vivo pharmacokinetic study of HL (plasma, HPLC); design: species or system CD®(SD) IGS rats
# Method: For pharmacokinetic studies, CD®(SD) IGS rats (5−6 weeks old) were randomly divided into two groups (three for each group) for oral administration (per os, PO) or intravenous administration (i.v.) of HL with dosages of 30 mg kg^−1 and 0.5 mg kg^−1, respectively (Tables S3 and S4). The blood was then collected from the orbital sinus with a heparinized syringe at different time intervals (0.5, 1.0, 2.0, 4.0, 8.0, and 24 h for PO, and 0.03, 0.5, 1.0, 2.0, 4.0, 8.0, and 24 h for i.v.).
# CD®(SD) IGS rats (5–6 weeks old) were purchased from Beijing Vital River Laboratory Animal Technology Co., Ltd. (Beijing, China). All animal experiments were conducted in accordance with the requirements of the Experimental Animal Welfare Ethics Committee of Transcenta Diagnostic Technology (Suzhou) Co., Ltd. (PZ-20211210001). For pharmacokinetic experiments, SD rats were randomly divided into two groups, with 3 for PO administration (30 mg kg^−1) and i.v. administration (0.5 mg kg^−1), respectively. Plasma was collected from the jugular vein with the presence of a heparinized syringe at different time intervals, viz. 0.5, 1.0, 2.0, 4.0, 8.0, and 24 h for PO and 0.03, 0.5, 1.0, 2.0, 4.0, 8.0, and 24 h for i.v. Plasma was first centrifuged at 3500 rpm for 10 min, and then 0.05 mL of the plasma was extracted; trifluoroacetic acid was used to acid precipitate protein, and NaOH was used to neutralize the solution. The mixture was diluted using MeCN: H2O (5:5 v/v). After 10 min of precipitating, supernatant fluids were collected by centrifugation at 10,000 rpm for 5 min and filtered with a syringe through a 0.22 μm hydrophilic membrane filter and measured using the HPLC method. For the HPLC assay, the analytical column was an Agilent ZORBAX SB C18 column (4.6 mm × 150 mm, 5 μm). The mobile phase was MeCN:H2O (5:5 v/v), the flow rate of the mobile phase was 0.8 mL min^−1, and the UV detector was set at 245 nm.
# [7] = Hydroxyl radical (•OH) production from H2O2, TMB assay; settings: 5, 10, 20, 30 μg/mL HL or equivalent HL, 100 μM H2O2, 20 min incubation
# Method: The generation of •OH from H2O2 by HL, 1, and 2 was assayed by 3,3′,5,5′-tetramethylbenzidine (TMB) [12, 28, 29]. The colorless TMB can be quickly oxidized by •OH to give a characteristic blue charge-transfer complex oxTMB with intense absorption at 652 nm [30, 31]. Different concentrations of HL (5, 10, 20, 30 μg/mL) or 1 and 2 containing equivalent HL were treated with (TMB) solution containing 100 μM H2O2, which is assumed as approximately the concentration reported to be present in tumor cells, or five times that in normal cells [32, 33].
# [8] = tested on: HuH-7 cells; assay: CCK-8 cytotoxicity assay, HuH-7; assay type: cell-based; settings: Homo sapiens; HuH-7, CCK-8, 72 h incubation, n = 3
# Method: as §1, §2
# [9] = Stability of MeOH solutions by UV-Vis; settings: HL/L concentration 30 μg/mL, kept for 72 h
# [10] = CD(SD) IGS (SD), rat, plasma, iv, 0.5 mg kg−1, mean, n = 3
# [11] = CD(SD) IGS (SD), rat, plasma, iv, 0.5 mg/kg, 0.5 mg kg−1, mean, n = 3
# [12] = CD(SD) IGS (SD), rat, plasma, po, 30 mg/kg, 30 mg kg−1, mean, n = 3
# [13] = CD(SD) IGS (SD), rat, plasma, PO, 30 mg kg−1, mean, n = 3
smiles,measurement,setting,value
"NC(=S)NN=Cc1ccc(O)cn1 [Compound 5-HP, 5-hydroxypicolinaldehyde thiosemicarbazone]",side effects,[1],severe hematological and gastrointestinal side effects
"S=C(N/N=C1\CCCc2cccnc21)N1CCN(c2ccccn2)CC1 [COTI-2, 4-(pyridine-2-yl)-N-([(8E)-5,6,7,8-tetrahydroquinolin-8-ylidene]amino)piperazine-1-carbothioamide]",side effects,[1],"drug resistance and other adverse effects (i.e., nausea, vomiting, and fatigue)"
"NC(=S)NN=Cc1ncccc1N [Triapine, 3-aminopyridine-2-carboxaldehyde thiosemicarbazone]",side effects,[1],formation of methemoglobin hypoxia
"S=C(NN=C(c1ccccn1)c1ccccn1)N1CCN(c2nccs2)CC1 [HL, N′-(di(pyridin-2-yl)methylene)-4-(thiazol-2-yl)piperazine-1-carbothiohydrazide]",IC50,[2],3.26 µM
same,IC50,[3],78.8 µM
same,intracellular ROS generation (DCF fluorescence),[4],negligible ROS
same,body weight of rats,"[5]; daily 5 mg kg−1 (12.2 μmol kg−1), groups 3 and 4, similar to control groups 1 and 2",constantly growing
same,"rats with abnormal behaviors (decreasing food uptake, cachexia, lethargy) on day 9, which died or were euthanized after drug suspension","[5]; daily 10 mg kg−1 (24.4 μmol kg−1), groups 5 and 6",four of six
same,AUC(0-inf),[6]; [10],5.7 ± 2.65 µg·h/mL
same,AUC(0-t),[6]; [10],4.21 µg·h/mL
same,C0,[6]; [10],0.858 µg/mL
same,MRT last,[6]; [10],7.85 h
same,half-life,[6]; [10],11.9 ± 1.66 h
same,clearance,"[6]; CD(SD) IGS (SD), rat, plasma, iv, 0.5 mg kg−1, mean, n = 3, read-out: Cl_obs (converted)",0.108 L/h/kg
same,concentration at 0.03 h,"[6]; CD(SD) IGS (SD), rat, plasma, iv, 0.5 mg kg−1, sampling time 0.03 h",0.806 µg/mL
same,concentration at 0.5 h,"[6]; CD(SD) IGS (SD), rat, plasma, iv, 0.5 mg kg−1, sampling time 0.50 h",0.349 µg/mL
same,concentration at 1 h,"[6]; CD(SD) IGS (SD), rat, plasma, iv, 0.5 mg kg−1, sampling time 1.00 h",0.341 µg/mL
same,concentration at 2 h,"[6]; CD(SD) IGS (SD), rat, plasma, iv, 0.5 mg kg−1, sampling time 2.00 h",0.372 µg/mL
same,concentration at 4 h,"[6]; CD(SD) IGS (SD), rat, plasma, iv, 0.5 mg kg−1, sampling time 4.00 h",0.24 µg/mL
same,concentration at 8 h,"[6]; CD(SD) IGS (SD), rat, plasma, iv, 0.5 mg kg−1, sampling time 8.00 h",0.163 µg/mL
same,concentration at 24 h,"[6]; CD(SD) IGS (SD), rat, plasma, iv, 0.5 mg kg−1, sampling time 24.00 h",0.0838 µg/mL
same,Cmax,[6]; [11],0.806 ± 0.0467 µg/mL
same,Tmax,[6]; [11],0.03 h
same,Cmax,[6]; [12],0.472 µg/mL
same,Tmax,[6]; [12],1.17 h
same,AUC(0-inf),[6]; [13],10.4 ± 5.31 µg·h/mL
same,AUC(0-t),[6]; [13],5.34 µg·h/mL
same,MRT last,[6]; [13],9.4 h
same,half-life,[6]; [13],21.6 ± 9.4 h
same,CL/F,"[6]; CD(SD) IGS (SD), rat, plasma, PO, 30 mg kg−1, mean, n = 3, read-out: Cl_F_obs (converted)",3.34 L/h/kg
same,concentration at 0.5 h,"[6]; CD(SD) IGS (SD), rat, plasma, PO, 30 mg kg−1, sampling time 0.50 h",0.242 µg/mL
same,concentration at 1 h,"[6]; CD(SD) IGS (SD), rat, plasma, PO, 30 mg kg−1, sampling time 1.00 h",0.426 µg/mL
same,concentration at 2 h,"[6]; CD(SD) IGS (SD), rat, plasma, PO, 30 mg kg−1, sampling time 2.00 h",0.41 µg/mL
same,concentration at 4 h,"[6]; CD(SD) IGS (SD), rat, plasma, PO, 30 mg kg−1, sampling time 4.00 h",0.316 µg/mL
same,concentration at 8 h,"[6]; CD(SD) IGS (SD), rat, plasma, PO, 30 mg kg−1, sampling time 8.00 h",0.218 µg/mL
same,concentration at 24 h,"[6]; CD(SD) IGS (SD), rat, plasma, PO, 30 mg kg−1, sampling time 24.00 h",0.145 µg/mL
same,Vz_F_obs,"[6]; PO, 30 mg kg−1, mean, n = 3",93.07416 L/kg
same,Vss_obs,"[6]; i.v., 0.5 mg kg−1, mean, n = 3",1.75547 L/kg
same,Vz_obs,"[6]; i.v., 0.5 mg kg−1, mean, n = 3",1.75231 L/kg
same,"generation of •OH from H2O2 (oxTMB, absorption at 652 nm)",[7],no oxTMB found
same,IC50,[8],192 µM
same,stability of MeOH solution (UV-Vis absorption pattern),[9],remained stable
